Among the data in patent US6479490B2, “3-indolyl-4-phenyl-1H-pyrrole-2,5-dione derivatives as inhibitors of glycogen synthase kinase-3β” (Syntex (U.S.A.) LLC, priority 2000, dated 2002) are melting point and IC50 values, retold here.

Structures are written as SMILES. Structures can show the parent of a compound that is named as a salt.

The target of data set [1] is T1, truncated form of recombinant rabbit GSK-3β enzyme (Oryctolagus cuniculus, UniProt G1T8E2).
T1 construct: The construct was cloned in pGEX-3X vector; fused on or other part: GST tag at the N-terminus, inferred from the pGEX-3X vector and the glutathione sepharose 4B purification with glutathione elution
The data set is described as follows: Inhibition of Glycogen Synthase Kinase-3β, in vitro assay. Particulars: GSK-3β inhibition, 40 μM ATP, CREB-peptide substrate, 30° C. for 1 h. The class given is biochemical. How it is done:
The in vitro GSK-3β inhibitory activity of compounds of this invention was determined with a truncated form of recombinant rabbit GSK-3β enzyme.
The construct was cloned in pGEX-3X vector according to the procedure described in Wang, Q. M. et al., J. Biol. Chem. 269, 14566-14574 (1994). Ten amino acids at the N-terminus were deleted to obtain constitutively active GSK-3β ((see Murai H. et al., FEBS Lett. 392,153-60, (1996)). GSK-3β was expressed in BL21 DE3 cells. The cells were grown at 37° C. until they reached mid log phase and then induced with isopropyl-beta-(D)-thiogalactopyranoside (final concentration 0.4 mM) at 30° C. for 2 h. The cells were homogenized and the cell extract was loaded on a glutathione sepharose 4B column. GSK-3β was eluted with glutathione buffer (50 mM Tris pH 8 and 10 mM reduced glutathione). The eluate was collected in 3 minute fractions and assayed for GSK-3β content on a 10% SDS PAGE (polyacrylamide gel electrophoresis). Fractions above 20% peak height were pooled, aliquoted, and stored at −80° C. until used.
The GSK-3β […] was performed in 50 μl reactions in a 96 well polypropylene plate, each reaction containing 20 mM magnesium chloride, 40 μM ATP, 2 mM DTT, 88.5 μM biotinylated and phosphorylated CREB-peptide substrate (biotin-[…](PO4)YR-OH, see Wang, Q. M. et al., J. Biol. Chem. 269, 14566-14574 (1994)), [γ-^33P] ATP (1 μCi), and 2 μl of compounds of this invention in DMSO (various concentrations). 15 μl of GSK-3β (various concentrations) was added and the reaction mixture was incubated at 30° C. for 1 h. The reaction was stopped by transferring 25 μl of the reaction mixture to a phosphocellulose plate containing 130 μl of 1.85% phosphoric acid. The free radionucleotides in the membrane were washed off under vacuum with 1.85% phosphoric acid (5 times). After the last wash, the plate was transferred to an adoptor plate and 50 μl of scintillation cocktail (Microscint-20, Packard, cat. #20-133) was added to each well and the amount of radioactivity was counted in a top counter.

T1 sequence (G1T8E2 1-432): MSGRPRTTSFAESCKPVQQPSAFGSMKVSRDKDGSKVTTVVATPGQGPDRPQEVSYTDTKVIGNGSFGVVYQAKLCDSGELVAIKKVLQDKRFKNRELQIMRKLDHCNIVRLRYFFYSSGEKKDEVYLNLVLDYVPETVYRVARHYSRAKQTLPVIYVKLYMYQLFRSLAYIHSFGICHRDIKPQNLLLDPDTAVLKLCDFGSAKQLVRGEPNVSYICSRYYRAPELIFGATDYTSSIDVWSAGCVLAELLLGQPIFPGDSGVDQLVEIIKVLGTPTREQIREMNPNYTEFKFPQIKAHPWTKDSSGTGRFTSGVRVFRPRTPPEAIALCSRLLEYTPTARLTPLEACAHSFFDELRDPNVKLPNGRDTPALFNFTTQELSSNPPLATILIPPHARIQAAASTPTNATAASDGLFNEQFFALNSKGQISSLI

A word on the melting point: it is the temperature of the solid-liquid transition. Regarding `Cn1cc(C2=C(c3cccc(NCCCO[Si](C)(C)C(C)(C)C)c3)C(=O)NC2=O)c2ccccc21`, the melting point fell in the range of 58 to 65 °C.

In turn, `Cn1cc(C2=C(c3cccc(OCCCO[Si](C)(C)C(C)(C)C)c3)C(=O)NC2=O)c2ccccc21` registered a melting point of 151.2 to 151.7 °C. As to `Cn1cc(C2=C(c3cccc(OCCN)c3)C(=O)NC2=O)c2ccccc21` (as salt: hydrochloride) [II-1, 3-(1-methylindol-3-yl)-4-[3-(2-aminoethyloxy)phenyl]-1H-pyrrole-2,5-dione], the melting point fell in the range of 182.4 to 187 °C.

Compound `Cn1cc(C2=C(c3cccc(N4CCOCC4)c3)C(=O)NC2=O)c2ccccc21` (as salt: hydrochloride) [II-15, 3-(1-methylindol-3-yl)-4-(3-morpholin-4-ylphenyl)-1H-pyrrole-2,5-dione hydrochloride] showed a melting point of 205.3 to 212.6 °C. Same read-out and setting: under `Cn1cc(C2=C(c3cccc(NCCO)c3)C(=O)NC2=O)c2ccccc21` (as salt: hydrochloride) [II-19, 3-(1-methylindol-3-yl)4-[3-(2-hydroxyethylamino)phenyl]-1H-pyrrole-2,5-dione] stands 170.3 to 170.6 °C; under `Cn1cc(C2=C(c3ccccc3OCC3COC(C)(C)O3)C(=O)NC2=O)c2ccccc21` (racemic) [Compound I-2, 3-(1-methylindol-3-yl)-4-[2-((RS)-2,2-dimethyl-1,3-dioxolan-4-ylmethyloxy)phenyl]-1H-pyrrole-2,5-dione], 220.8 to 221.2 °C. Same read-out and setting: the same measure for `Cn1cc(C2=C(c3cccc(NCC(O)CO)c3)C(=O)NC2=O)c2ccccc21` (racemic) [II-9, 3-(1-methylindol-3-yl)-4-{3-[(2-(RS)-hydroxy-2-hydroxymethyl)ethylamino]phenyl}-1H-pyrrole-2,5-dione]: 160 to 163.5 °C; for `CC(CO)Nc1cccc(C2=C(c3cn(C)c4ccccc34)C(=O)NC2=O)c1` (racemic) [II-22, 3-(1-methylindol-3-yl)-4-[3-(2-hydroxy-1-methylethylamino)phenyl]-1H-pyrrole-2,5-dione]: 203.1 to 205.8 °C. Still for that read-out and setting: the same measure for `O=C1NC(=O)C(c2cn(CCCO)c3ccc(F)cc23)=C1c1cccc(NCC(O)CO)c1` (racemic) [III-6, 3-{3-[(2,3-dihydroxypropyl)amino]phenyl}-4-[5-fluoro-1-(3-hydroxypropyl)-1H-indol-3-yl]-1H-pyrrole-2,5-dione]: 118 to 125 °C.

As to `Cn1cc(C2=C(c3cccc(OCC(O)CO)c3)C(=O)NC2=O)c2ccccc21` (stereo in doubt) [II-5, 3-(1-methylindol-3-yl)-4-{3-[((S)-2-hydroxy-2-hydroxymethyl)ethyloxy]-phenyl]-1H-pyrrole-2,5-dione], the melting point lay in the range of 176.9 to 178.1 °C. For the compound `Cn1cc(C2=C(c3cccc(OCC4COC(C)(C)O4)c3)C(=O)NC2=O)c2ccccc21` (stereo in doubt) [II-6, 3-(1-methylindol-3-yl)-4-[3-((R)-2,2-dimethyl-1,3-dioxolan-4-ylmethyloxy)phenyl]-1H-pyrrole-2,5-dione], the melting point is 220.8 to 221.2 °C.

The compound `Cn1cc(C2=C(c3ccc(OCC(O)CO)cc3)C(=O)NC2=O)c2ccccc21` (stereo in doubt) [IV-6, 3-(1-methylindol-3-yl)-4-{4-[((R)-2-hydroxy-2-hydroxymethyl)ethyloxy]-phenyl}-1H-pyrrole-2,5-dione] registered a melting point of 220.3 to 222.7 °C.

As a reminder, the IC50 is the concentration that gives 50% inhibition. `Cn1cc(C2=C(c3ccccc3OCC(O)CO)C(=O)NC2=O)c2ccccc21` (centres unmarked) [Compound I-1, 3-(1-methylindol-3-yl)-4-{2-[(-2-hydroxy-2-hydroxymethyl)ethyloxy]-phenyl}-1H-pyrrole-2,5-dione] showed a melting point of 245 to 247.1 °C. Also, in data set [1], the IC50 came to 194 nM. For the compound `Cn1cc(C2=C(c3cccc(OCCN)c3)C(=O)NC2=O)c2ccccc21` [II-1, 3-(1-methylindol-3-yl)-4-[3-(2-aminoethyloxy)phenyl]-1H-pyrrole-2,5-dione], in data set [1], the IC50 was determined as 20 nM. On the same count and under the same terms, under `Cn1cc(C2=C(c3cccc(OCCCN)c3)C(=O)NC2=O)c2ccccc21` [II-2, 3-(1-methylindol-3-yl)-4-[3-(3-aminopropyloxy)phenyl]-1H-pyrrole-2,5-dione] stands 26.4 nM.

`Cn1cc(C2=C(c3cccc(OC[C@H](O)CO)c3)C(=O)NC2=O)c2ccccc21` [II-3, 3-(1-methylindol-3-yl)-4-{3-[((R)-2-hydroxy-2-hydroxymethyl)ethyloxy]phenyl}-1H-pyrrole-2,5-dione] displayed a melting point of 177.7 to 178 °C. `Cn1cc(C2=C(c3cccc(OCCN4CCOCC4)c3)C(=O)NC2=O)c2ccccc21` [II-4, 3-(1-methylindol-3-yl)-4-[3-(2-morpholin-4-ylethyloxy)phenyl]-1H-pyrrole-2,5-dione]: the melting point lay within 197.7 to 199 °C. For the same compound, the IC50 in data set [1] is 29.6 nM. Consider `Cn1cc(C2=C(c3cccc(OC[C@H]4COC(C)(C)O4)c3)C(=O)NC2=O)c2ccccc21` [II-7, 3-(1-methylindol-3-yl)-4-[3-((S)-2,2-dimethyl-1,3-dioxolan-4-ylmethyloxy)phenyl]-1H-pyrrole-2,5-dione], for which the melting point lay within 186.8 to 187.4 °C. Same read-out and setting: the same measure for `Cn1cc(C2=C(c3cccc(NC4COC(C)(C)OC4)c3)C(=O)NC2=O)c2ccccc21` [II-10, 3-(1-methylindol-3-yl)-4-[3-(2,2-dimethyl-1,3-dioxan-5-ylamino)phenyl]-1H-pyrrole-2,5-dione]: 201 to 203 °C. `Cn1cc(C2=C(c3cccc(OCCCO)c3)C(=O)NC2=O)c2ccccc21` [II-20] gave a melting point of 150.2 to 152.6 °C.

The compound `Cn1cc(C2=C(c3cccc(N4CCC(O)CC4)c3)C(=O)NC2=O)c2ccccc21` [II-29, 3-[3-(4-hydroxypiperidin-1-yl)phenyl]-4-(1-methyl-1H-indol-3-yl)-1H-pyrrole-2,5-dione] displayed a melting point of 136 to 141 °C. In the case of `O=C1NC(=O)C(c2c[nH]c3ccccc23)=C1c1cccc(OCCN2CCOCC2)c1` [III-3, 3-(1H-indol-3-yl)-4-[3-(2-morpholin-4-ylethoxy)phenyl]-1H-pyrrole-2,5-dione], the IC50 in data set [1] came to 230 nM.

With `Cn1cc(C2=C(c3ccc(OC[C@@H]4COC(C)(C)O4)cc3)C(=O)NC2=O)c2ccccc21` [IV-1, 3-(1-methylindol-3-yl)-4-[4-((R)-2,2-dimethyl-1,3-dioxolan-4-ylmethyloxy)phenyl]-1H-pyrrole-2,5-dione], the IC50 in data set [1] is 133 nM. Turning to `CC(O)CCNc1ccc(C2=C(c3cn(C)c4ccccc34)C(=O)NC2=O)cc1` (centres unmarked) [IV-4], the melting point was in the range of 58 to 61.5 °C.
